Measured values from ChEMBL document CHEMBL3603815, “Exploring new Probenecid-based carbonic anhydrase inhibitors: Synthesis, biological evaluation and docking studies” (Bioorg Med Chem, 2015).

These compounds were tested against Carbonic anhydrase 12 (Homo sapiens, UniProt O43570) (assay: Inhibition of human carbonic anhydrase-12 incubated for 15 mins by stopped-flow CO2 hydration assay).
Carbonic anhydrase 12, sequence (O43570 whole entry): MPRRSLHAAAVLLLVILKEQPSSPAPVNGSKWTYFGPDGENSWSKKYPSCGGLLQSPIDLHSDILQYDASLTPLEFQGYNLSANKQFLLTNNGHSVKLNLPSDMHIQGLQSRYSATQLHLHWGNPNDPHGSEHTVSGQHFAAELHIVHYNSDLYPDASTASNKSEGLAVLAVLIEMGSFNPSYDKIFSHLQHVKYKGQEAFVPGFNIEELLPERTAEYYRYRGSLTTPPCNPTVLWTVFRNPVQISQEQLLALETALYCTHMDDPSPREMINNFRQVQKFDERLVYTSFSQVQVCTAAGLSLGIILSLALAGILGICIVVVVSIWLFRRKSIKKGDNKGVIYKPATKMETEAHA
`CCCN(CCC)S(=O)(=O)c1ccc(C(=O)NCC(=O)O)cc1` gave a Ki of over 10000 nM.

The compounds below were run against Carbonic anhydrase 9 (Homo sapiens, UniProt Q16790) (assay: Inhibition of human carbonic anhydrase-9 incubated for 15 mins by stopped-flow CO2 hydration assay).
For `CCCN(CCC)S(=O)(=O)c1ccc(C(=O)N[C@@H](C)C(=O)O)cc1`, the Ki was 27 nM. Work on `CCCN(CCC)S(=O)(=O)c1ccc(C(=O)NCC(N)=O)cc1` yielded a Ki of 1.9 nM. Work on `CCCN(CCC)S(=O)(=O)c1ccc(C(=O)N[C@@H](CCCNC(=N)N)C(=O)O)cc1` yielded a Ki of 26 nM. For `CCCN(CCC)S(=O)(=O)c1ccc(C(=O)N[C@@H](C)C(N)=O)cc1`, the Ki was 15 nM. `CCCN(CCC)S(=O)(=O)c1ccc(C(=O)N[C@@H](CC(C)C)C(=O)O)cc1` was tested, and the Ki was 26 nM. Work on `CCCN(CCC)S(=O)(=O)c1ccc(C(=O)N[C@@H](Cc2ccc(O)cc2)C(=O)O)cc1` yielded a Ki of 32 nM. `CCCN(CCC)S(=O)(=O)c1ccc(C(=O)N[C@@H](CS)C(N)=O)cc1` was tested, and the Ki was 28 nM. `CCCN(CCC)S(=O)(=O)c1ccc(C(=O)N[C@@H](CC(C)C)C(N)=O)cc1` gave a Ki of 150 nM. `CCCN(CCC)S(=O)(=O)c1ccc(C(=O)N[C@@H](Cc2ccc(O)cc2)C(N)=O)cc1` gave a Ki of 21 nM. For `CCCN(CCC)S(=O)(=O)c1ccc(C(=O)N[C@@H](CCC(=O)O)C(=O)O)cc1`, the Ki was 31 nM. `CCCN(CCC)S(=O)(=O)c1ccc(C(=O)N[C@@H](CO)C(=O)O)cc1` showed a Ki of 27 nM. Work on `CCCN(CCC)S(=O)(=O)c1ccc(C(=O)N[C@@H](CCCNC(=N)N)C(N)=O)cc1` yielded a Ki of 20 nM. With `CCCN(CCC)S(=O)(=O)c1ccc(C(=O)N[C@@H](Cc2ccccc2)C(N)=O)cc1` the Ki was 25 nM. For `CCCN(CCC)S(=O)(=O)c1ccc(C(=O)N[C@@H](CCSC)C(=O)O)cc1`, the Ki was 61 nM. With `CCCN(CCC)S(=O)(=O)c1ccc(C(=O)N[C@@H](CCCCN)C(=O)O)cc1` the Ki was 32 nM. `CCCN(CCC)S(=O)(=O)c1ccc(C(=O)N[C@@H](Cc2c[nH]c3ccccc23)C(=O)O)cc1` gave a Ki of 25 nM. Work on `CCCN(CCC)S(=O)(=O)c1ccc(C(=O)N[C@@H](Cc2ccccc2)C(=O)O)cc1` yielded a Ki of 210 nM. Compound `CCCN(CCC)S(=O)(=O)c1ccc(C(=O)N[C@@H](CCCCN)C(N)=O)cc1` has a Ki of 27 nM. Compound `CCCN(CCC)S(=O)(=O)c1ccc(C(=O)N[C@@H](CO)C(N)=O)cc1` has a Ki of 2.6 nM.

Each compound was assayed against Carbonic anhydrase 1 (Homo sapiens, UniProt P00915) (assay: Inhibition of human carbonic anhydrase-1 incubated for 15 mins by stopped-flow CO2 hydration assay).
Carbonic anhydrase 1, sequence (P00915 whole entry): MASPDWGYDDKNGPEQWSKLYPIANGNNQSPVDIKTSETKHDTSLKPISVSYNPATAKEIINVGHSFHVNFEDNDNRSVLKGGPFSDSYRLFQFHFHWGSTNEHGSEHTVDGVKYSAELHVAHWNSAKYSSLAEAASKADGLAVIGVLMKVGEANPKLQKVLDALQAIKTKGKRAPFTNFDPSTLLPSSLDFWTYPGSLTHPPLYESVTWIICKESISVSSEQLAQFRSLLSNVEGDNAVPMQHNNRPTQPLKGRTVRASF
For `CCCN(CCC)S(=O)(=O)c1ccc(C(=O)N[C@@H](CCSC)C(N)=O)cc1`, the Ki was over 10000 nM.
